Data on 2 compounds can be found in publication PMC2873968, “Novel protein kinase D inhibitors cause potent arrest in prostate cancer cell growth and motility” (BMC Chemical Biology, 2010).

SMILES strings stand for the structures. Where only a bound is given, the exact number is not on record here.

In one experiment the target is p70S6K (Homo sapiens, UniProt P23443). In words: Kinase profiling, single-dose in vitro kinase assay (Caliper Life Sciences). To be noted: read-out: Average % Inhibition p70S6K.
In another experiment the target is PKCη (Homo sapiens, UniProt P24723). The description is as above. To be noted: read-out: Average % Inhibition PKCη.
Chain of PKCη (P24723 whole entry): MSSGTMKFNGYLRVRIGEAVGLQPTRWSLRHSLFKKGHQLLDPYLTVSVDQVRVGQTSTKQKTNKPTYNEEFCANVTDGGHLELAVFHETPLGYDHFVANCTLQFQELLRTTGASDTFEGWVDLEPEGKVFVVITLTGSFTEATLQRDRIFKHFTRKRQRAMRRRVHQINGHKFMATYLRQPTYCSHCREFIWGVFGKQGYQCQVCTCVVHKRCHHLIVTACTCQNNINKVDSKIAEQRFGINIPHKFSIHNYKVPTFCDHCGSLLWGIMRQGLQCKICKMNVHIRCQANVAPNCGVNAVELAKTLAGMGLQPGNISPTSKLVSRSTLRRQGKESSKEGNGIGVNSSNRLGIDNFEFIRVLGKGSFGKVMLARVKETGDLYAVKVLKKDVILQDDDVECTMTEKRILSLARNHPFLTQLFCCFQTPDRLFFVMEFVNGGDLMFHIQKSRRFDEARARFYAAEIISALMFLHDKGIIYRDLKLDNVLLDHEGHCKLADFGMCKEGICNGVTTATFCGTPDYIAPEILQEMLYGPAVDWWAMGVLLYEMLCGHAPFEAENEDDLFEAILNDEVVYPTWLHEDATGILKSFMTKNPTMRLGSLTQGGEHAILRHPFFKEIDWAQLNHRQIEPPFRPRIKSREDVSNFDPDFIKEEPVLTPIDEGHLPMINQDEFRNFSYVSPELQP
Another experiment has as its target MARK1 (Homo sapiens, UniProt Q9P0L2). Described as above. To be noted: read-out: Average % Inhibition MARK1.
The next experiment concerns the target FGFR1 (Homo sapiens, UniProt P11362). The description is as above. To be noted: read-out: Average % Inhibition FGFR1.
A further experiment concerns the target Erk1 (Homo sapiens, UniProt P27361). The experiment is described as above. To be noted: read-out: Average % Inhibition Erk1, 10 μM.
The target in a further experiment is CAMK4 (Homo sapiens, UniProt Q16566). The experiment is described as above. To be noted: read-out: Average % Inhibition CAMK4.
Chain of CAMK4 (Q16566 whole entry): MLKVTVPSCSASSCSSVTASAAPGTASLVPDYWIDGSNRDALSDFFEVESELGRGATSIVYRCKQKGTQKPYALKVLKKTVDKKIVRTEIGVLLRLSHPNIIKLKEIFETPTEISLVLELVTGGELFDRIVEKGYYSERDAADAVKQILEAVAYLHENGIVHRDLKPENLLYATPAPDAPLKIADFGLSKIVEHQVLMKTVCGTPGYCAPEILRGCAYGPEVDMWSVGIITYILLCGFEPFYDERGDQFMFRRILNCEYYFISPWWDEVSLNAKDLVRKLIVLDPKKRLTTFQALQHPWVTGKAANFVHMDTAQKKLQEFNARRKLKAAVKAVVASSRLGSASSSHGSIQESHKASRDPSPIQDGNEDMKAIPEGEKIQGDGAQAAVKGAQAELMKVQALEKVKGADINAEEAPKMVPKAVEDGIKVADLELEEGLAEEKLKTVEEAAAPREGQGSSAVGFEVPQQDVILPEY
The next experiment deals with T1, PKCδ (Homo sapiens, UniProt Q05655).
T1 construct: purchased Enzo Life Sciences
T1 sequence (Q05655 whole entry): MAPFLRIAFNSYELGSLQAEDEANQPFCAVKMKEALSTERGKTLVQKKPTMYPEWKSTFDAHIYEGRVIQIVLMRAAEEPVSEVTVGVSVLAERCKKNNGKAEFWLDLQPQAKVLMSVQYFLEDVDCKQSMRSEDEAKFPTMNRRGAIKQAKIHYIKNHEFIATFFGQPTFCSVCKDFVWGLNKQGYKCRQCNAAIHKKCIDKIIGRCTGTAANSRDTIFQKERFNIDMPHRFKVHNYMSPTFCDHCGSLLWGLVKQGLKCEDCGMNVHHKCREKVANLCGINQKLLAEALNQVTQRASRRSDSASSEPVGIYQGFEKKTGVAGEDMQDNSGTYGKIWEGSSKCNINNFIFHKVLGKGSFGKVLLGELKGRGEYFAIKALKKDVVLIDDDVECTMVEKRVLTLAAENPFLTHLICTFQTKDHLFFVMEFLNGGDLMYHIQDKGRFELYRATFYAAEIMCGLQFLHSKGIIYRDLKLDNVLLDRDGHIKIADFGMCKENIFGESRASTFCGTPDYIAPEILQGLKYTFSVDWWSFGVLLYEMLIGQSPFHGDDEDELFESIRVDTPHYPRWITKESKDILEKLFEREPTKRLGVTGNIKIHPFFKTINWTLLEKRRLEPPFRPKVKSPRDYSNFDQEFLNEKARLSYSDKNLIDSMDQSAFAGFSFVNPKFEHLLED
More on the design: method as in PMID 18829454. To be noted: previously reported; cited from earlier work.

A further experiment deals with SRC (Homo sapiens, UniProt P12931). In words: Kinase profiling, single-dose in vitro kinase assay (Caliper Life Sciences). To be noted: read-out: Average % Inhibition SRC.
A further experiment deals with KDR (Homo sapiens, UniProt P35968). The experiment is described as above. To be noted: read-out: Average % Inhibition KDR.
Chain of KDR (P35968 20-1356): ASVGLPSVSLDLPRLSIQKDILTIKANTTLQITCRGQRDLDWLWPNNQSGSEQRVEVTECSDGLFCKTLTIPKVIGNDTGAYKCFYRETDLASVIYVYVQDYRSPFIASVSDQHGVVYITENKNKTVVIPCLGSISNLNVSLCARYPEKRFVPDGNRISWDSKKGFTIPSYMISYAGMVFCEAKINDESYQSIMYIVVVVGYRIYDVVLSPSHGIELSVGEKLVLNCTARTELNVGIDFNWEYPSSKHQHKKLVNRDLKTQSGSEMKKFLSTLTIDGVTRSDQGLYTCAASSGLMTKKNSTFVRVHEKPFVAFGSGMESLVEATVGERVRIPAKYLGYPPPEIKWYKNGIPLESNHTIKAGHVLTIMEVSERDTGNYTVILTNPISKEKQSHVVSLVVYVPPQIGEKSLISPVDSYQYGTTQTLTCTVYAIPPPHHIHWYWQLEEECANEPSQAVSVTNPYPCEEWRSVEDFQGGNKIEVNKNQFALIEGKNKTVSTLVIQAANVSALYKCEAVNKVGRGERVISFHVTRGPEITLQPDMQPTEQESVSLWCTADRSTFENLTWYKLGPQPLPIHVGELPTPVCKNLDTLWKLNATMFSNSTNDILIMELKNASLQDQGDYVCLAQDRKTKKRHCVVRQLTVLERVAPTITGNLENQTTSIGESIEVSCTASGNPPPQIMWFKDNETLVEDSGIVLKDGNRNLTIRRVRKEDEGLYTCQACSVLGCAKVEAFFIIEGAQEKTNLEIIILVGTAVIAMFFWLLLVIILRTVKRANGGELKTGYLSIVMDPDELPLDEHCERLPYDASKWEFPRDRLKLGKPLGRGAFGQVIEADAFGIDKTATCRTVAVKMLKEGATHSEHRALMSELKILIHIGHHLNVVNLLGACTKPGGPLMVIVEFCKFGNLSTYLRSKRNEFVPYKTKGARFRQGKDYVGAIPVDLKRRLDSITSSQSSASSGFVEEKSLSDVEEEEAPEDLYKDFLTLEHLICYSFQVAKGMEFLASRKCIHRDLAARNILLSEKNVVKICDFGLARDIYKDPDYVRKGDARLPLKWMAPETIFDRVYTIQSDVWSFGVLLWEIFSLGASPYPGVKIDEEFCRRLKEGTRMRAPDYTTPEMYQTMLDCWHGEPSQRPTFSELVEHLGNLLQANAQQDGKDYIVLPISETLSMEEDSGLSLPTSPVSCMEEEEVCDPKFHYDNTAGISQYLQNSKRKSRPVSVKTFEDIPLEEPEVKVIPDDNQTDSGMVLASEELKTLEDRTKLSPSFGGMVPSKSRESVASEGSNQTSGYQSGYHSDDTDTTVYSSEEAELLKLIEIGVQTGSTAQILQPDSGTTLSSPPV
For another experiment, the target named is T2, PKD2 (Homo sapiens, UniProt Q9BZL6).
T2 sequence (Q9BZL6 1-878): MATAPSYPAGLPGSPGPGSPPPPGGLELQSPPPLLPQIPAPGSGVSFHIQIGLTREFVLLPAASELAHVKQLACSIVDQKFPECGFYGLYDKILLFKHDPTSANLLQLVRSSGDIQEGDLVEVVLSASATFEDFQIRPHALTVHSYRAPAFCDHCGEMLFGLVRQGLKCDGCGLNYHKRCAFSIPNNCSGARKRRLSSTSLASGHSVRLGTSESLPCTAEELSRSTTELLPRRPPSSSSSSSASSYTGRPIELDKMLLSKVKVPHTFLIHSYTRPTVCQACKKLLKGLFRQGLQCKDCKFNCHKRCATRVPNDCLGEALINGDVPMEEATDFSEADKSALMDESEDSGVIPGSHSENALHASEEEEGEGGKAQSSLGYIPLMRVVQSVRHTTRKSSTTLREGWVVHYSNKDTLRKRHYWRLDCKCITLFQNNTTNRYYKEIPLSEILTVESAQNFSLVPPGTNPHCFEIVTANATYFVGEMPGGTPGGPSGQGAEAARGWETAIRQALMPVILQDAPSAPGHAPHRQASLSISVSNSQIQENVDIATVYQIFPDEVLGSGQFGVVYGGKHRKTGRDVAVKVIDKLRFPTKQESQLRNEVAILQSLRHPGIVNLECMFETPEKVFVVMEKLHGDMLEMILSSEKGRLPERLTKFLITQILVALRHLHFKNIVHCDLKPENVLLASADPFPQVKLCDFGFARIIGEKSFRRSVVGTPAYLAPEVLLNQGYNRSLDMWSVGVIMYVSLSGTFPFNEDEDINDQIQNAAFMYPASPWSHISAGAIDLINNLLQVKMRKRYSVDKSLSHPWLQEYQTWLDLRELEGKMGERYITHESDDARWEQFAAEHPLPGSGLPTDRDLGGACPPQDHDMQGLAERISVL
Described as above. To be noted: read-out: Average % Inhibition PKD2.

Another experiment concerns the target p38a (Homo sapiens, UniProt Q16539). Described as above. To be noted: read-out: Average % Inhibition p38a.
A further experiment deals with BTK (Homo sapiens, UniProt Q06187). The description is as above. To be noted: read-out: Average % Inhibition BTK.
Another experiment deals with PKG1β (Homo sapiens, UniProt Q13976). The experiment is described as above. To be noted: read-out: Average % Inhibition PKG1β.
The next experiment addresses SGK1 (Homo sapiens, UniProt O00141). Described as above. To be noted: read-out: Average % Inhibition SGK1.
The next experiment has as its target T3, CAMKIIα (Homo sapiens, UniProt Q9UQM7).
T3 construct: purchased Enzo Life Sciences
Description: In vitro radiometric CAMK kinase assay. The experiment is classed as biochemical. On the procedure:
In vitro radiometric kinase assays were conducted as previously described. Briefly, 1 μCi [γ-^32P] ATP (PerkinElmer Life Sciences), 70 μM ATP, 50 ng purified recombinant human PKD1 (Biomol International, Plymouth Meeting, PA), PKD2 (SignalChem, Richmond, BC, Canada), or CAMKIIα (Enzo Life Sciences) or 75 ng PKD3 (Enzo Life Sciences), and 2.5 μg syntide-2 (Sigma) in 50 μl kinase buffer containing 50 mM Tris-HCl, pH 7.5, 4 mM MgCl2, and 10 mM β-mercaptoethanol. For the CAMK assay, 0.5 mM CaCl2 and 30 ng/μl calmodulin were pre-incubated for 10 min on ice, and then added to each reaction mixture. The reaction was incubated at 30°C for 10 min, and 25 μl of the reaction mixture was then spotted onto Whatman P81 filter paper (Whatman Inc., Clifton, NJ). The filter papers were washed 3 times in 0.5% phosphoric acid, air-dried, and counted using a Beckman LS6500 multipurpose scintillation counter (Beckman).
To determine whether the novel analogs retained this specificity, we tested the compounds against their ability to inhibit PKCα, -βI, -δ, and CAMKIIα in in vitro radiometric kinase activity assays.
Inhibition of PKCα (A), PKCβI (B), PKCδ (C), or CAMKIIα (D) by each of the 5 analogs was determined at 100 nM, 1 μM, and 10 μM concentrations. […] Statistical significance was determined using the unpaired t-test. ns, not statistically significant; *, p < 0.05; **, p < 0.01; ***, p < 0.001.

Chain of MARK1 (Q9P0L2 whole entry): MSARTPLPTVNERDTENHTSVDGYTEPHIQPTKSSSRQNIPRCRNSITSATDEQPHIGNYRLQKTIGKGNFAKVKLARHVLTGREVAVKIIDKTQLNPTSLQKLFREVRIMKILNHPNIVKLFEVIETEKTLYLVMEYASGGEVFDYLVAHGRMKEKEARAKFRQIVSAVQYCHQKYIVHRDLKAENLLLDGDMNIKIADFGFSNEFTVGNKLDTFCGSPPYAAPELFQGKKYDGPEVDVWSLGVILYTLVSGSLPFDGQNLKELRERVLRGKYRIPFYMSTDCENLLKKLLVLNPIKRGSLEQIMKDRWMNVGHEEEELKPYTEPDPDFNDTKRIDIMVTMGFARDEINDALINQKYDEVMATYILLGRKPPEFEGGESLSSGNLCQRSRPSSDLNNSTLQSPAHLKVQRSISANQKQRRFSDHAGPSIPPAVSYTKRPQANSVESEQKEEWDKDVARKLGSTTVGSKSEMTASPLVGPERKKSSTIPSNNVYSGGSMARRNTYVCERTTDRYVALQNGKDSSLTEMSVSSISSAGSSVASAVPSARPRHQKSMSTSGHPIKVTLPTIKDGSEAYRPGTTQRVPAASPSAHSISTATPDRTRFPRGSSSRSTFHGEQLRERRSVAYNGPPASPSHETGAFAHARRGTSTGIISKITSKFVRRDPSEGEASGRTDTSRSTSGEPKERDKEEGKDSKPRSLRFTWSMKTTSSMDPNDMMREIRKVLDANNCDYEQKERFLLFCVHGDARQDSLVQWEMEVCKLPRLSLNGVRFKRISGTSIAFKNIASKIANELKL
Chain of p38a (Q16539 whole entry): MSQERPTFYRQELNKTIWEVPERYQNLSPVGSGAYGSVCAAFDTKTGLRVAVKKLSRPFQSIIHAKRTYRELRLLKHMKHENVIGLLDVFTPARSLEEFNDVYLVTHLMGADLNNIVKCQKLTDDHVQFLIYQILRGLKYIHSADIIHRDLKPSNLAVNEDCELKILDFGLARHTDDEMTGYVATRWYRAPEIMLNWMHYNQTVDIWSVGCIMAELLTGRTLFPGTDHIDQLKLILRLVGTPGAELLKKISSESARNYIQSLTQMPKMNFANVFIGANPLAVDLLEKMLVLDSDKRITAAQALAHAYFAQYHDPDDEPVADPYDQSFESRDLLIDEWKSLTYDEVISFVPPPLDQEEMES
Chain of Erk1 (P27361 whole entry): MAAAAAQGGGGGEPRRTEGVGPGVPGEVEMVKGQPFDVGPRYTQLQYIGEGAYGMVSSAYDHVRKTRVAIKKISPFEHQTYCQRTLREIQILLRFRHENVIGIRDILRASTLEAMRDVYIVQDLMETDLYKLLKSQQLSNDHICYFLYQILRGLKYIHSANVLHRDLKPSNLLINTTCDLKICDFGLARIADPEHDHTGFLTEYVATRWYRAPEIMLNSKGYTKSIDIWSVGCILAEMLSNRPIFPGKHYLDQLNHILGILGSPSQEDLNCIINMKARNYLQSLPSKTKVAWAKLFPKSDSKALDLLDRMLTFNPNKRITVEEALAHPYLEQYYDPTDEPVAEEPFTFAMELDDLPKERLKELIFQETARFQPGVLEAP

For `O=C1NCCCc2c1oc1ccc(O)cc21` [CID755673, 7-Hydroxy-2,3,4,5-tetrahydro-[1]benzoxolo[2,3-c]azepin-1-one], the inhibition (commonly the change of the read-out against control, counted positive when it falls) at 10 µM on p70S6K is 44%; on PKCη it was 40%; at MARK1, 12%; at FGFR1 it was 16%; on Erk1, at least 50%; on CAMK4 it was 17%. For the same compound, the inhibition at 10 µM on SRC is 7%; at KDR, 8%; on PKD2, 95%; on p38a, 2%; on BTK, -3%; on PKG1β, 11%. Also, the inhibition at 10 µM at SGK1 came to 9%. Besides, the “inhibition of PKCδ” value at PKCδ is “did not inhibit”.
On to `O=C1NCCSc2c1sc1ccc(O)c(I)c21` [kb-NB165-31], for which the “inhibition of CAMKIIα (in words)” value on CAMKIIα is reported as “significant inhibitory activity”. Also, the inhibition at 10 µM at CAMKIIα (10 μM) was around 70%.
